# Data from US8653304B2, “2,3-dihydro-1H-indene-2-yl urea derivative and pharmaceutical application of same” (Toray Industries, Inc., priority 2009, dated 2014).
# How the values were obtained:
# [1] = test system: skin swelling response in type I allergic dermatitis model; assay: Skin swelling response in type I allergic dermatitis model; assay type: in vivo; conditions: BALB/c mouse, 20 μL of 0.5 w/v % solution applied to auricle 1 hour before induction
# Text: (§1) The action of Compound (I) on skin swelling response in mouse allergic dermatitis models was studied. As the allergic dermatitis models, models partially modified from a type I allergic dermatitis model and a type IV allergic dermatitis model described in documents (Inflamm. Res., 1998, Vol. 47, pp. 506-511 and Int. Arch. Allergy. Appl. Immunol., 1990, Vol. 92, pp. 356-360) were used.
# To each BALB/c mouse (female, 7-week old, Charles River Laboratories Japan, Inc.), mouse IgE anti-DNP antibody (0.05 mg/body, […] CORPORATION) was intravenously administered to passively sensitize the mouse. Twenty four hours after the sensitization, 20 μL of 0.38% DNFB (SIGMA) dissolved in acetone:olive oil (4:1) was applied to the auricle of the mouse to induce inflammation. From after the induction to 24 hours, the thickness of the auricle was measured with time using a Digimatic Indicator (Mitutoyo). Each test compound was dissolved in ethanol, and 20 μL of 0.5 w/v % solution was applied to the auricle at 1 hour before the induction.
# The swelling ratio of the auricle was calculated according to the following equation. […] Auricular Swelling Ratio(%)=(A−B)/B×100
# human p38 MAPK α = human p38 MAPK α (Homo sapiens (Human), UniProt Q16539); assay: Evaluation of p38 MAPK inhibitory activity (Alpha Screen, ATF2 phosphorylation); assay type: biochemical; conditions: p38α/SAPK2a 1.5 nM, ATP 100 μM, biotinylated ATF2 30 nM
# Experimental: Using human p38 MAPK α, the p38 MAPK inhibitory activity of Compound (I) was studied by a method partially modified from the method described in Current Medicinal Chemistry (2004, No. 11, pp. 721-730).
# A solution of each test compound solution in 100% DMSO and a p38α/SAPK2a solution (Final Concentration: 1.5 nM) (Invitrogen) were added to a 384-well plate, and then the plate was incubated at room temperature in a dark place for 1 hour. Thereafter, ATP (Final Concentration: 100 μM), which is a phosphate donor, and biotinylated ATF2 (Final Concentration: 30 nM) (upstate), which is a substrate, were added, and the resulting mixture was allowed to react at room temperature in a dark place for 1 hour (the final concentration of DMSO was 0.25%). After the reaction, an anti-phosphorylated ATF2 antibody (Final Concentration: 1 nM) (Cell Signaling), anti-IgG acceptor beads (Final Concentration: 20 μg/mL) (PerkinElmer) and streptavidin donor beads (Final Concentration: 20 μg/mL) (PerkinElmer) were added, and the resultant was incubated at room temperature in a dark place for 1 hour. Using a microplate analyzer (Fusion-α, Packard) in Alpha Screen method (Amplified Luminescent Proximity Homogeneous Assay), the light emission was detected. The IC50 value of each compound was calculated by sigmoidal dose-response regression using Prism 4.02 (GraphPad Software, Inc.).
# TNFα production [2] = assay: Cytokine production suppressing activity using human whole blood (LPS stimulation); assay type: cell-based; conditions: LPS 200 ng/mL, 37° C., 5 hours
# Experimental: Using human whole blood, the inhibitory action of Compound (I) on the TNFα production by LPS stimulation was studied by a method partially modified from the method described in Journal of Medicinal Chemistry (2003, Vol. 46, pp. 4676-4686).
# A solution of each test compound in 100% DMSO and human blood were mixed in a 96-well flat-bottom plate. Thereafter, LPS (Final Concentration: 200 ng/mL) was added, and the resulting mixture was allowed to react at 37° C. for 5 hours (the final concentration of DMSO was 0.2%). After the reaction, the resultant was centrifuged for 20 minutes at room temperature, and the supernatant was collected. For the measurement of the TNFα amount in the supernatant, a human cytokine kit (CIS bio international) was used. As a comparative control compound, Comparative Compound 2 was used.
# [3] = test system: colonic disorders in TNBS-induced colitis model; assay: Colonic disorders in TNBS-induced colitis model; assay type: in vivo; conditions: Wistar rat, oral 3 mg/kg once on TNBS day then twice a day for 4 days, colon 5 days after TNBS
# Text: (§2) The action of Compound (I) on colonic disorders in inflammatory bowel disease models was studied. As the inflammatory bowel disease models, models partially modified from a TNBS-induced colitis model and a DSS-induced chronic colitis model described in documents (Gastroenterology, 1989, Vol. 96, pp. 29-36 and Am. J. Physiol. Gastrointest. Liver Physiol., 2004, Vol. 287, pp. G115-124) were used.
# To each Slc:Wistar rat (male, 12-week old, Japan SLC, Inc.), TNBS (Wako Pure Chemical Industries, Ltd.) dissolved in ethanol was rectally administered under anesthesia, and the TNBS solution was held in the rectum for 1 hour to produce the colitis model. These rats had been fasted from 2 days before the TNBS administration to the day of the TNBS administration. Five days after the TNBS administration, the colon was isolated from the each rat, and the macroscopic damage score (which is a total of adhesion score, diarrhea score and ulcer score) was recorded as an index of damage in the colon. The macroscopic damage score was calculated based on the scores of Dubigeon et al. (Eur. J. Pharmacol., 2001, Vol. 431, pp. 103-110) and the scores of Venkova et al. (J. Pharmacol. Exp. Ther., 2004, Vol. 308, pp. 206-213). […]
# [4] = test system: skin swelling response in type IV allergic dermatitis model; assay: Skin swelling response in type IV allergic dermatitis model; assay type: in vivo; conditions: BALB/c mouse, 24 hours after induction
# Experimental: as §1
# To the back of each BALB/c mouse (female, 7-week old, Charles River Laboratories Japan, Inc.), 25 μL of 0.5% DNFB solution dissolved in acetone:olive oil (4:1) was applied. On the next day, the same operations were repeated to actively sensitize the mouse. Four days after the sensitization, 20 μL of 0.2% DNFB solution dissolved in acetone:olive oil (4:1) was applied to the auricle of the sensitized mouse to induce inflammation. Twenty four hours after the induction, the thickness of the auricle was measured using a Digimatic Indicator (Mitutoyo). Each test compound was dissolved in ethanol and 20 μL of 0.5 w/v % solution was applied to the auricle at 1 hour before the induction; or each test compound was suspended in 0.5% methylcellulose (Wako Pure Chemical Industries, Ltd.) and the resulting solution was orally administered at 30 mg/kg at 1 hour before the induction. The swelling ratio of the auricle was calculated according to the following equation: Auricular Swelling Ratio(%)=(A−B)/B×100
# [5] = test system: colonic disorders in DSS-induced chronic colitis model; assay: Colonic disorders in DSS-induced chronic colitis model; assay type: in vivo; conditions: BALB/c mouse, oral 10 mg/kg once Day 27, twice a day Day 28-31; scores Day 28-32
# Text: as §2
# To each BALB/cCrSlc mouse (female, 9-week old, Japan SLC, Inc.), DSS (Molecular Weight: 36-50 kDa; MP Biomedicals) dissolved in sterile ultrapure water was administered via free drinking for 5 days from the day of the start of the administration via drinking water (this day was considered as Day 0 after the start of the administration via drinking water), and then switched to administration of sterile ultrapure water via free drinking for 5 days. This cycle was repeated again, and DSS was further administered via free drinking for another 7 days to produce the colitis model. As an index of colitis symptoms, stool consistency scores were used. The stool consistency scores were based on the following criteria: normal stool was defined as score 0; loose stool was defined as score 2; and diarrhea was defined as score 4. […]
# [6] = Metabolic stability in human CYP (human liver microsomes); assay type: in vitro ADME; conditions: human liver microsomes 0.5 mg/mL, NADPH, 37° C., comparative control compounds 5 μM
# Experimental: Each test compound was mixed at a concentration of 2 μM with a phosphate buffer solution containing Human liver microsomes (Xenotech) in an amount of 0.5 mg/mL. Thereafter, NADPH was added thereto, and the obtained mixture was allowed to react at 37° C. for up to 30 minutes. The reaction was terminated by adding acetonitrile, and then the resultant was centrifuged for 10 minutes at 4° C. to collect a supernatant. The supernatant was pretreated by methanol extraction method, and the concentration of the compound was analyzed by LC/MS/MS (ESI positive mode). The compound remaining rate was calculated from the obtained concentration of the compound.
# TNFα production [7] = assay: Mouse LPS-induced cytokine production model; assay type: in vivo; conditions: BALB/c mouse, 50 mg/kg oral 30 minutes before LPS 1 mg/kg i.p., serum 60 minutes after LPS
# Experimental: The action of Compound (I) on the TNFα production induced by LPS administration in a mouse was studied by a method partially modified from the method described in Journal of Immunology (1992, Vol. 148, pp. 1890-1897).
# To each BALB/c mouse (male, 7 to 9-week old, Charles River Laboratories Japan, Inc.), LPS (0111:B4, SIGMA) was intraperitoneally administered at a dose of 1 mg/kg. Sixty minutes after the LPS administration, blood was collected from the abdominal vena cava under anesthesia and centrifuged for 15 minutes at 4° C. to obtain a serum. For the measurement of TNF-α in the serum, ELISA Development System (R&D Systems) was used. Each test compound was dissolved in DMSO (Final Concentration: 2%), and then the obtained solution was dissolved in a 27% aqueous solution of 2-hydroxypropyl-β-cyclodextrin (hereinafter referred to as “HP-β-CD”; Nihon Shokuhin Kako Co., Ltd.). Thirty minutes before the LPS administration, the resulting solution was orally administered at 50 mg/kg.
# [8] = test system: hyperalgesia in Bennett model; assay: Hyperalgesia in neuropathic pain model (Bennett model), plantar test; assay type: in vivo; conditions: SD rat, Bennett model day 14, oral 100 mg/kg, 90 minutes after administration; FIG. 2
# Text: The action of Compound (I) on hyperalgesia in pain models was studied. As the pain models, models partially modified from an inflammatory pain model (a carrageenin paw edema pain model) and neuropathic pain models (Bennett model and Chung model) described in documents (Anesth. Analg., 2009, Vol. 108, pp. 1680-1687; Pain, 1988, Vol. 33, pp. 87-107; and Pain, 1992, Vol. 50, pp. 355-363) were used.
# The Bennett model was produced by lightly ligating the sciatic nerve in the left thigh of each Crl:CD (SD) rat (male, 6-week old, Charles River Laboratories Japan, Inc.) at 4 points with chromic catgut (4-0). Fourteen days after the Bennett model was produced, each test compound was orally administered, and plantar test was performed 90 minutes after the administration. The plantar test was carried out by measuring the pain threshold (sec) of the left footpad (model foot) using a plantar thermal stimulation device (Plantar test 7370, Ugo Basile) wherein the thermal stimulus intensity was set to 60. Each test compound was suspended in 0.5 w/v % methylcellulose (Wako Pure Chemical Industries, Ltd.) and the obtained solution was orally administered. Compound 46b described in the Examples was administered at a dose of 100 mg/kg, and gabapentin (Toronto Research Chemicals), which is an anticonvulsant, was administered as a comparative control agent at a dose of 100 mg/kg.
# Sequence of human p38 MAPK α (Q16539 whole entry): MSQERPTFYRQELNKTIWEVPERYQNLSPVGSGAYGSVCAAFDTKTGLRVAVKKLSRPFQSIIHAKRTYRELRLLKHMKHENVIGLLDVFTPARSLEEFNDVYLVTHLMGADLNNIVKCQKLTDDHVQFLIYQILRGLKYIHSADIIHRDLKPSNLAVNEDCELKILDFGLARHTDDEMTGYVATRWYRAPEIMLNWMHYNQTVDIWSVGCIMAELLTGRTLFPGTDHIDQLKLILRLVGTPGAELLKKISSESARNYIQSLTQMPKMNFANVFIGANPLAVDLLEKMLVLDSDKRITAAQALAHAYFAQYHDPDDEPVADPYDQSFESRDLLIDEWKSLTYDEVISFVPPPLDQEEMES
smiles,measurement,setting,value
"COc1c(NC(=O)N[C@H]2Cc3c(F)cccc3[C@H]2O)cc(C(C)(C)C)cc1[C@@H](O)C(F)(F)F (single isomer, unassigned) [Compound 50b]",suppression ratio on immediate response (auricular swelling AUC 0-4 hours),[1],33.4%
same,suppression ratio on late response (auricular swelling AUC 5-10 hours),[1],50.2%
same,IC50,human p38 MAPK α,35 nM
same,IC50,TNFα production [2],46 nM
same,macroscopic damage score,[3],5.2±1.1
same,"suppression ratio of auricular swelling, oral administration",[4]; 30 mg/kg oral 1 hour before induction,54.4%
same,"suppression ratio of auricular swelling, auricular application",[4]; 20 μL of 0.5 w/v % solution on auricle 1 hour before induction,48.0%
same,stool consistency score (total),[5],6.5±0.6
"COc1c(NC(=O)N[C@@H]2Cc3ccccc3[C@@H]2O)cc(C(C)(C)C)cc1C(C)(C)C#N [Comparative Compound 3, 1-(5-tert-butyl-3-(2-cyanopropan-2-yl)-2-methoxyphenyl)-3-((1S,2R)-1-hydroxy-2,3-dihydro-1H-indene-2-yl)urea, reference compound]",microsomal CLint at 5 μM,[6],450 µL/min/mg
same,Suppression Ratio of TNFα production,TNFα production [7],17.0%
"NCC1(CC(=O)O)CCCCC1 [gabapentin, reference compound]","pain threshold (sec), plantar test, compared to solvent-administered group",[8],significant difference
